Results on 28 compounds are retold here after patent publication US20040082635A1, “Fused cyclic compounds and medicinal use thereof” (priority 2001, published 2004).

Where a name gives a salt, the structure may show the parent alone.

The target in the assay is T1, HCV polymerase (Hepatitis C virus genotype 1b, UniProt P26663).
T1 construct: a region encoding NS5B (591 amino acids; J Virol 1991 Mar, 65(3), 1105-13) was amplified by PCR; 6 His (N); made in house; host or cells: Escherichia coli
T1 sequence (P26663 2420-3010): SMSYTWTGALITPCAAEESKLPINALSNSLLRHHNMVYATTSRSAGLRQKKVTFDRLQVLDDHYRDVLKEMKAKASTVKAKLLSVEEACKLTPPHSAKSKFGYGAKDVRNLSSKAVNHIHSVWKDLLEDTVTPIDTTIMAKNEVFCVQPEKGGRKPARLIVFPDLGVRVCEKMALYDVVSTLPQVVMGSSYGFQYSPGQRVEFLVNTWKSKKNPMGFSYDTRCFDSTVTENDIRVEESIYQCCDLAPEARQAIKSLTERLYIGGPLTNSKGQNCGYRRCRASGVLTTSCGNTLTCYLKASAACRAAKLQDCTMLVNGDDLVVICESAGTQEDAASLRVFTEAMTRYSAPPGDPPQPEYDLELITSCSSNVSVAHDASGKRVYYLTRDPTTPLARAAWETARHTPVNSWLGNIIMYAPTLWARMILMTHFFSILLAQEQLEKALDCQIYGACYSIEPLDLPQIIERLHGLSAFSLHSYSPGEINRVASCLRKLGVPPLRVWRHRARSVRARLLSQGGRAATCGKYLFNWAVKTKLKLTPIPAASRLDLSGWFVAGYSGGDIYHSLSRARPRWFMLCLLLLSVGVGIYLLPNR
In words: biochemical. As to conditions: read-out: HCV polymerase inhibitory activity IC50.
`O=C(O)c1ccc2c(c1)nc(-c1ccc(OCc3cc(OCC(=O)N4CCC(O)CC4)ccc3-c3ccc(Cl)cc3)cc1)n2C1CCCCC1` [Example 343]: the IC50 (usually the midpoint of a concentration-inhibition curve) amounted to 17 nM.
Next, `COCCOc1ccc(-c2ccc(Cl)cc2)c(COc2ccc(-c3nc4cc(C(=O)O)ccc4n3C3CCCCC3)cc2)c1` [Example 344, 2-{4-[2-(4-chlorophenyl)-5-(2-methoxyethoxy)benzyloxy]phenyl}-1-cyclohexylbenzimidazole-5-carboxylic acid hydrochloride]: 16 nM; `COCCOCCOc1ccc(-c2ccc(Cl)cc2)c(COc2ccc(-c3nc4cc(C(=O)O)ccc4n3C3CCCCC3)cc2)c1` [Example 345, 2-{4-[2-(4-chlorophenyl)-5-{2-(2-methoxyethoxy)ethoxy}-benzyloxy]phenyl}-1-cyclohexylbenzimidazole-5-carboxylic acid hydrochloride]: 12 nM.
With `CC(C)CC(=O)c1ccc(-c2ccc(Cl)cc2)c(COc2ccc(-c3nc4cc(C(=O)O)ccc4n3C3CCCCC3)cc2)c1` [Example 346, 2-{4-[2-(4-chlorophenyl)-5-(isobutylcarbonyl)benzyloxy]phenyl}-1-cyclohexylbenzimidazole-5-carboxylic acid] the figure was 25 nM; with `Cc1nc(-c2ccc(-c3ccc(Cl)cc3)c(COc3ccc(-c4nc5cc(C(=O)O)ccc5n4C4CCCCC4)cc3)c2)cs1` [Example 347, 2-{4-[2-(4-chlorophenyl)-5-(2-methylthiazol-4-yl)benzyloxy]-phenyl}-1-cyclohexylbenzimidazole-5-carboxylic acid], 22 nM.
As for `Cc1noc(-c2ccc(-c3ccc(Cl)cc3)c(COc3ccc(-c4nc5cc(C(=O)O)ccc5n4C4CCCCC4)cc3)c2)n1` [Example 349, 2-{4-[2-(4-chlorophenyl)-5-(3-methyl-1,2,4-oxadiazol-5-yl)benzyloxy]phenyl}-1-cyclohexylbenzimidazole-5-carboxylic acid hydrochloride], the IC50 was 21 nM.
Consider `CC(C)NC(=O)c1ccc(COc2ccc(-c3nc4cc(C(=O)O)ccc4n3C3CCCCC3)cc2)c(-c2ccc(Cl)cc2)c1` [Example 350, 2-{4-[2-(4-chlorophenyl)-4-(isopropylcarbamoyl)benzyloxy]phenyl}-1-cyclohexylbenzimidazole-5-carboxylic acid hydrochloride], for which the IC50 was 20 nM.
On to `O=C(O)c1ccc2c(c1)nc(-c1ccc(OCc3ccc(C(=O)N4CCCCC4)cc3-c3ccc(Cl)cc3)cc1)n2C1CCCCC1` [Example 351, 2-{4-[2-(4-chlorophenyl)-4-(piperidinocarbonyl)benzyloxy]phenyl}-1-cyclohexylbenzimidazole-5-carboxylic acid hydrochloride], for which the IC50 was 19 nM.
With `CC(C)(CO)NC(=O)c1ccc(-c2ccc(Cl)cc2)c(COc2ccc(-c3nc4cc(C(=O)O)ccc4n3C3CCCCC3)cc2)c1` [Example 352, 2-{4-[2-(4-chlorophenyl)-5-{(1-hydroxy-2-methylpropan-2-yl)carbamoyl}benzyloxy]phenyl}-1-cyclohexylbenzimidazole-5-carboxylic acid hydrochloride] the figure was 13 nM; with `CC1(C)COC(c2ccc(-c3ccc(Cl)cc3)c(COc3ccc(-c4nc5cc(C(=O)O)ccc5n4C4CCCCC4)cc3)c2)=N1` [Example 353, 2-{4-[2-(4-chlorophenyl)-5-(4,4-dimethyl-2-oxazolin-2-yl)benzyloxy]phenyl}-1-cyclohexylbenzimidazole-5-carboxylic acid dihydrochloride], 23 nM; with `O=C(O)c1ccc2c(c1)nc(-c1ccc(OCc3ccc(C(=O)N4CCC(O)CC4)cc3-c3ccc(Cl)cc3)cc1)n2C1CCCCC1` [Example 354, 2-{4-[2-(4-chlorophenyl)-4-(4-hydroxypiperidin-1-ylcarbonyl)benzyloxy]phenyl}-1-cyclohexylbenzimidazole-5-carboxylic acid hydrochloride], 13 nM.
As to `O=C(O)c1ccc2c(c1)nc(-c1ccc(OCc3ccc(C(=O)NCCO)cc3-c3ccc(Cl)cc3)cc1)n2C1CCCCC1` [Example 355, 2-{4-[2-(4-chlorophenyl)-4-{(2-hydroxyethyl)carbamoyl}-benzyloxy]phenyl}-1-cyclohexylbenzimidazole-5-carboxylic acid hydrochloride], the IC50 came out at 15 nM.
`O=C(O)c1ccc2c(c1)nc(-c1ccc(OCc3ccc(C(=O)NCc4ccncc4)cc3-c3ccc(Cl)cc3)cc1)n2C1CCCCC1` [Example 356, 2-{4-[2-(4-chlorophenyl)-4-{(4-pyridylmethyl)carbamoyl}-benzyloxy]phenyl}-1-cyclohexylbenzimidazole-5-carboxylic acid]: the IC50 turned out to be 16 nM.
Next, `CN(C)C(=O)c1ccc(COc2ccc(-c3nc4cc(C(=O)O)ccc4n3C3CCCCC3)cc2)c(-c2ccc(Cl)cc2)c1` [Example 357, 2-{4-[2-(4-chlorophenyl)-4-(dimethylcarbamoyl)benzyloxy]phenyl}-1-cyclohexylbenzimidazole-5-carboxylic acid hydrochloride]: 19 nM; `Nc1nc(-c2ccc(-c3ccc(Cl)cc3)c(COc3ccc(-c4nc5cc(C(=O)O)ccc5n4C4CCCCC4)cc3)c2)cs1` [Example 358, 2-{4-[5-(2-aminothiazol-4-yl)-2-(4-chlorophenyl)benzyloxy]-phenyl}-1-cyclohexylbenzimidazole-5-carboxylic acid dihydrochloride]: 17 nM.
Take `O=C(O)c1ccc2c(c1)nc(-c1ccc(OCc3cc(S(=O)(=O)N4CCC(O)CC4)ccc3-c3ccc(Cl)cc3)cc1)n2C1CCCCC1` [Example 359, 2-{4-[2-(4-chlorophenyl)-5-(4-hydroxypiperidin-1-ylsulfonyl)benzyloxy]phenyl}-1-cyclohexylbenzimidazole-5-carboxylic acid hydrochloride]: the IC50 came out at 15 nM.
With `CN(C)C(=O)c1ccc(-c2ccc(F)cc2)c(COc2ccc(-c3nc4cc(C(=O)O)ccc4n3C3CCCCC3)cc2)c1` [Example 360, 2-{4-[5-(dimethylcarbamoyl)-2-(4-fluorophenyl)benzyloxy]phenyl}-1-cyclohexylbenzimidazole-5-carboxylic acid hydrochloride] the figure was 14 nM; with `CN(C)C(=O)c1ccc(-c2cccc(F)c2)c(COc2ccc(-c3nc4cc(C(=O)O)ccc4n3C3CCCCC3)cc2)c1` [Example 361, 2-{4-[5-(dimethylcarbamoyl)-2-(3-fluorophenyl)benzyloxy]phenyl}-1-cyclohexylbenzimidazole-5-carboxylic acid hydrochloride], 28 nM; with `CN(C)C(=O)c1ccc(-c2ccc(Cl)s2)c(COc2ccc(-c3nc4cc(C(=O)O)ccc4n3C3CCCCC3)cc2)c1` [Example 362, 2-{4-[2-(5-chlorothiophen-2-yl)-5-(dimethylcarbamoyl)benzyloxy]-phenyl}-1-cyclohexylbenzimidazole-5-carboxylic acid hydrochloride], 20 nM.
On to `Cc1cnc(-c2ccc(Br)c(COc3ccc(-c4nc5cc(C(=O)O)ccc5n4C4CCCCC4)cc3)c2)o1` [Example 363, 2-{4-[2-bromo-5-(5-methyloxazol-2-yl)benzyloxy]phenyl}-1-cyclohexylbenzimidazole-5-carboxylic acid hydrochloride], for which the IC50 is 110 nM.
In the case of `Cc1cnc(-c2ccc(Br)c(COc3ccc(-c4nc5cc(C(=O)O)ccc5n4C4CCCCC4)cc3)c2)s1` [Example 364, 2-{4-[2-bromo-5-(5-methylthiazol-2-yl)benzyloxy]phenyl}-1-cyclohexylbenzimidazole-5-carboxylic acid hydrochloride], the IC50 was 120 nM.
On to `Cc1cnc(-c2ccc(-c3ccc(Cl)cc3)c(COc3ccc(-c4nc5cc(C(=O)O)ccc5n4C4CCCCC4)cc3)c2)o1` [Example 365, 2-{4-[2-(4-chlorophenyl)-5-(5-methyloxazol-2-yl)benzyloxy]-phenyl}-1-cyclohexylbenzimidazole-5-carboxylic acid hydrochloride], for which the IC50 came to 20 nM.
In the case of `Cc1cnc(-c2ccc(-c3ccc(Cl)cc3)c(COc3ccc(-c4nc5cc(C(=O)O)ccc5n4C4CCCCC4)cc3)c2)s1` [Example 366, 2-{4-[2-(4-chlorophenyl)-5-(5-methylthiazol-2-yl)benzyloxy]-phenyl}-1-cyclohexylbenzimidazole-5-carboxylic acid hydrochloride], the IC50 was found to be 24 nM.
For `O=C(O)c1ccc2c(c1)nc(-c1ccc(OCc3cc(-c4nnn[nH]4)ccc3-c3ccc(Cl)cc3)cc1)n2C1CCCCC1` [Example 367, 2-{4-[2-(4-chlorophenyl)-5-tetrazol-5-ylbenzyloxy]phenyl}-1-cyclohexylbenzimidazole-5-carboxylic acid hydrochloride], the half-inhibitory concentration (IC50) was 11 nM.
With `O=C(O)c1ccc2c(c1)nc(-c1ccc(OCc3cc(Cl)ccc3-c3ccc(-c4nnn[nH]4)cc3)cc1)n2C1CCCCC1` [Example 369, 2-{4-[5-chloro-2-(4-tetrazol-5-ylphenyl)benzyloxy]phenyl}-1-cyclohexylbenzimidazole-5-carboxylic acid hydrochloride], the IC50 is 22 nM.
Regarding `O=C(O)c1ccc2c(c1)nc(-c1ccc(OCc3cc(OCCN4CCC(O)CC4)ccc3-c3ccc(Cl)cc3)cc1)n2C1CCCCC1` [Example 370, 2-{4-[2-(4-chlorophenyl)-5-{2-(4-hydroxypiperidin-1-yl)ethoxy}benzyloxy]phenyl}-1-cyclohexylbenzimidazole-5-carboxylic acid hydrochloride], the IC50 was determined as 17 nM.
Next, `O=C(O)c1ccc2c(c1)nc(-c1ccc(OCc3cc(N4CCCCC4=O)ccc3-c3ccc(Cl)cc3)cc1F)n2C1CCCCC1` [Example 371, 2-{4-[2-(4-chlorophenyl)-5-(2-oxopiperidin-1-yl)benzyloxy]-2-fluorophenyl}-1-cyclohexylbenzimidazole-5-carboxylic acid hydrochloride]: 15 nM; `CN(C)C(=O)c1cc(COc2ccc(-c3nc4cc(C(=O)O)ccc4n3C3CCCCC3)c(F)c2)cc(-c2ccc(Cl)cc2)c1` [Example 372, 2-{4-[3-(4-chlorophenyl)-5-(dimethylcarbamoyl)benzyloxy]-2-fluorophenyl}-1-cyclohexylbenzimidazole-5-carboxylic acid hydrochloride]: 33 nM.
